{"source": "ChEMBL document CHEMBL5143574", "about": "“Unraveling the anti-virulence potential and antifungal efficacy of 5-aminotetrazoles using the zebrafish model of disseminated candidiasis” (Eur J Med Chem, 2022)", "key": {"Candida albicans [1]": {"tested_on": "Candida albicans", "experiment": "Anti-virulence activity against Candida albicans SC5314 assessed as inhibition of fungal filamentation by measuring reduction in hyphae formation in YPS plus uridine medium at 5 uM incubated for 3 to 5 days by stereomicroscopic analysis", "type": "functional, organism-based", "settings": "time 3-5 day"}, "[2]": {"experiment": "Toxicity in zebrafish embryos assessed as mortality treated at 6 hpf and measured at 120 hpf by stereomicroscopic analysis", "set-up": "species or system Danio rerio", "settings": "in vivo"}, "Candida albicans [3]": {"tested_on": "Candida albicans", "experiment": "Anti-virulence activity against Candida albicans SC5314 assessed as inhibition of fungal filamentation by measuring reduction in hyphae formation in Spider medium at 5 uM incubated for 3 to 5 days by stereomicroscopic analysis", "type": "functional, organism-based", "settings": "time 3-5 day"}, "Candida albicans [4]": {"tested_on": "Candida albicans", "experiment": "Antifungal activity against Candida albicans SC5314 assessed as inhibition of fungal growth incubated for 24 hrs by broth microdilution assay", "type": "functional"}, "Candida albicans [5]": {"tested_on": "Candida albicans", "experiment": "Anti-virulence activity against Candida albicans SC5314 assessed as inhibition of fungal filamentation by measuring reduction in hyphae formation in RPMI medium at 5 uM incubated for 3 to 5 days by stereomicroscopic analysis", "type": "functional, organism-based", "settings": "time 3-5 day"}, "Candida albicans [6]": {"tested_on": "Candida albicans", "experiment": "Anti-virulence activity against Candida albicans SC5314 assessed as inhibition of fungal filamentation by measuring reduction in hyphae formation in Lee medium at 5 uM incubated for 3 to 5 days by stereomicroscopic analysis", "type": "functional, organism-based", "settings": "time 3-5 day"}, "Candida albicans [7]": {"tested_on": "Candida albicans", "experiment": "Anti-virulence activity against Candida albicans SC5314 assessed as inhibition of fungal filamentation by measuring reduction in hyphae formation in YPS medium at 5 uM incubated for 3 to 5 days by stereomicroscopic analysis", "type": "functional, organism-based", "settings": "time 3-5 day"}, "[8]": {"experiment": "Toxicity in zebrafish embryos assessed as toxic responses at 200 uM treated at 6 hpf and measured at 120 hpf by stereomicroscopic analysis", "set-up": "species or system Danio rerio", "settings": "in vivo, 24 h"}, "Candida albicans [9]": {"tested_on": "Candida albicans", "experiment": "Anti-virulence activity against Candida albicans SC5314 assessed as inhibition of fungal filamentation by measuring reduction of hyphae formation in RPMI medium upto 10 uM incubated for 3 to 5 days by stereomicroscopic analysis", "type": "functional, organism-based", "settings": "time 3-5 day"}, "Candida albicans [10]": {"tested_on": "Candida albicans", "experiment": "Anti-virulence activity against Candida albicans SC5314 assessed as inhibition of fungal filamentation by measuring reduction in hyphae formation in SLAD medium upto 10 uM incubated for 3 to 5 days by stereomicroscopic analysis", "type": "functional, organism-based", "settings": "time 3-5 day"}, "Candida albicans [11]": {"tested_on": "Candida albicans", "experiment": "Anti-virulence activity against Candida albicans SC5314 assessed as inhibition of fungal filamentation by measuring reduction in hyphae formation in Lee medium upto 10 uM incubated for 3 to 5 days by stereomicroscopic analysis", "type": "functional, organism-based", "settings": "time 3-5 day"}, "Candida albicans [12]": {"tested_on": "Candida albicans", "experiment": "Anti-virulence activity against Candida albicans SC5314 assessed as inhibition of fungal filamentation by measuring reduction in hyphae formation in Spider medium upto 10 uM incubated for 3 to 5 days by stereomicroscopic analysis", "type": "functional, organism-based", "settings": "time 3-5 day"}, "Candida albicans [13]": {"tested_on": "Candida albicans", "experiment": "Anti-virulence activity against Candida albicans SC5314 assessed as inhibition of fungal filamentation by measuring reduction in hyphae formation in GlcNAc medium upto 10 uM incubated for 3 to 5 days by stereomicroscopic analysis", "type": "functional, organism-based", "settings": "time 3-5 day"}, "Candida albicans [14]": {"tested_on": "Candida albicans", "experiment": "Anti-virulence activity against Candida albicans SC5314 assessed as inhibition of fungal filamentation by measuring reduction in hyphae formation in YPS plus uridine medium upto 10 uM incubated for 3 to 5 days by stereomicroscopic analysis", "type": "functional, organism-based", "settings": "time 3-5 day"}, "Candida albicans [15]": {"tested_on": "Candida albicans", "experiment": "Anti-virulence activity against Candida albicans SC5314 assessed as inhibition of fungal filamentation by measuring reduction in hyphae formation in YPS medium upto 10 uM incubated for 3 to 5 days by stereomicroscopic analysis", "type": "functional, organism-based", "settings": "time 3-5 day"}, "[16]": {"experiment": "Toxicity against zebrafish embryo infected with 53-75 RFP expressing cells of Candida albicans M137 assessed as mortality at 2.5 to 10 uM treated at 1 hr post-infection and measured on day 4 post-infection", "set-up": "species or system Danio rerio", "settings": "96 h, dose 2.5-10 µM, time 4 day"}, "[17]": {"experiment": "Cardiotoxicity in zebrafish embryos assessed as pericardial edema at 0.25 uM treated at 6 hpf and measured at 120 hpf by stereomicroscopic analysis", "type": "toxicity, Danio rerio"}, "[18]": {"experiment": "Hepatotoxicity in zebrafish embryos assessed as liver failure by measuring necrotic and decreased liver with non-resorbed yolk at 0.25 uM treated at 6 hpf and measured at 120 hpf by stereomicroscopic analysis", "type": "toxicity, tissue-based, Danio rerio", "settings": "in vivo"}, "[19]": {"experiment": "Hepatotoxicity in zebrafish embryos assessed as liver darkening at 25 uM treated at 6 hpf and measured at 120 hpf by stereomicroscopic analysis", "type": "toxicity, Danio rerio", "settings": "in vivo"}}, "note": "The source made the active and inactive calls. No cut-off for these calls is given here.", "data": [{"smiles": "O=Cc1ccc(Nc2nnnn2Cc2ccccc2)cc1", "values": [{"measurement": "Activity", "setting": "Candida albicans [1]", "value": "Active"}, {"measurement": "LC50", "setting": "[2]", "value": "> 200", "unit": "µM"}, {"measurement": "Activity", "setting": "Candida albicans [3]", "value": "Active"}, {"measurement": "MIC", "setting": "Candida albicans [4]", "value": "> 200", "unit": "µM"}, {"measurement": "Activity", "setting": "Candida albicans [5]", "value": "Active"}, {"measurement": "Activity", "setting": "Candida albicans [6]", "value": "Active"}, {"measurement": "Activity", "setting": "Candida albicans [7]", "value": "Active"}]}, {"smiles": "CCCn1nnc(N)n1", "values": [{"measurement": "LC50", "setting": "[2]", "value": "> 200", "unit": "µM"}, {"measurement": "MIC", "setting": "Candida albicans [4]", "value": "> 200", "unit": "µM"}]}, {"smiles": "c1ccc(Nc2nn[nH]n2)cc1", "values": [{"measurement": "Activity", "setting": "[8]", "value": "Non-Toxic"}, {"measurement": "LC50", "setting": "[2]", "value": "> 200", "unit": "µM"}, {"measurement": "MIC", "setting": "Candida albicans [4]", "value": "> 200", "unit": "µM"}]}, {"smiles": "CCCn1nnnc1Nc1ccnc(Cl)n1", "values": [{"measurement": "Activity", "setting": "Candida albicans [9]", "value": "Active"}, {"measurement": "LC50", "setting": "[2]", "value": "> 200", "unit": "µM"}, {"measurement": "Activity", "setting": "Candida albicans [10]", "value": "Active"}, {"measurement": "MIC", "setting": "Candida albicans [4]", "value": "> 200", "unit": "µM"}, {"measurement": "Activity", "setting": "Candida albicans [11]", "value": "Active"}, {"measurement": "Activity", "setting": "Candida albicans [12]", "value": "Active"}, {"measurement": "Activity", "setting": "Candida albicans [13]", "value": "Active"}, {"measurement": "Activity", "setting": "Candida albicans [14]", "value": "Active"}, {"measurement": "Activity", "setting": "Candida albicans [15]", "value": "Active"}]}, {"smiles": "Clc1ccc(Nc2nnnn2Cc2ccccc2)cc1", "values": [{"measurement": "LC50", "setting": "[2]", "value": "> 200", "unit": "µM"}, {"measurement": "MIC", "setting": "Candida albicans [4]", "value": "> 200", "unit": "µM"}]}, {"smiles": "Clc1cccc(Nc2nnnn2Cc2ccccc2)c1", "values": [{"measurement": "LC50", "setting": "[2]", "value": "> 200", "unit": "µM"}, {"measurement": "MIC", "setting": "Candida albicans [4]", "value": "> 200", "unit": "µM"}]}, {"smiles": "N#Cc1ccc(Nc2nnnn2Cc2ccccc2)cc1", "values": [{"measurement": "LC50", "setting": "[2]", "value": "> 200", "unit": "µM"}, {"measurement": "MIC", "setting": "Candida albicans [4]", "value": "> 200", "unit": "µM"}]}, {"smiles": "CCCn1nnnc1N", "values": [{"measurement": "Activity", "setting": "[16]", "value": "Non-Toxic"}, {"measurement": "Activity", "setting": "Candida albicans [1]", "value": "Active"}, {"measurement": "LC50", "setting": "[2]", "value": "> 200", "unit": "µM"}, {"measurement": "Activity", "setting": "Candida albicans [3]", "value": "Active"}, {"measurement": "MIC", "setting": "Candida albicans [4]", "value": "> 200", "unit": "µM"}, {"measurement": "Activity", "setting": "Candida albicans [5]", "value": "Active"}, {"measurement": "Activity", "setting": "Candida albicans [6]", "value": "Active"}, {"measurement": "Activity", "setting": "Candida albicans [7]", "value": "Active"}]}, {"smiles": "CCC(C)n1ncn(-c2ccc(N3CCN(c4ccc(OCC5COC(Cn6cncn6)(c6ccc(Cl)cc6Cl)O5)cc4)CC3)cc2)c1=O", "note": "(stereo not given) [ITRACONAZOLE]", "values": [{"measurement": "Activity", "setting": "[17]", "value": "Toxic"}, {"measurement": "Activity", "setting": "[18]", "value": "Toxic"}]}, {"smiles": "Clc1nccc(Nc2nnnn2Cc2ccccc2)n1", "values": [{"measurement": "Activity", "setting": "[19]", "value": "Toxic"}, {"measurement": "MIC", "setting": "Candida albicans [4]", "value": 35.4, "unit": "µM"}]}, {"smiles": "O=[N+]([O-])c1ccc(Nc2nnnn2Cc2ccccc2)cc1", "values": [{"measurement": "LC50", "setting": "[2]", "value": "> 200", "unit": "µM"}, {"measurement": "MIC", "setting": "Candida albicans [4]", "value": "> 200", "unit": "µM"}]}, {"smiles": "c1ccc(Nc2nnnn2-c2ccccc2)cc1", "values": [{"measurement": "Activity", "setting": "Candida albicans [1]", "value": "Active"}, {"measurement": "Activity", "setting": "Candida albicans [3]", "value": "Active"}, {"measurement": "MIC", "setting": "Candida albicans [4]", "value": 194, "unit": "µM"}, {"measurement": "Activity", "setting": "Candida albicans [5]", "value": "Active"}, {"measurement": "Activity", "setting": "Candida albicans [6]", "value": "Active"}, {"measurement": "Activity", "setting": "Candida albicans [7]", "value": "Active"}]}, {"smiles": "c1ccc(Cn2nnnc2Nc2ccccc2)cc1", "values": [{"measurement": "Activity", "setting": "Candida albicans [9]", "value": "Active"}, {"measurement": "LC50", "setting": "[2]", "value": "> 200", "unit": "µM"}, {"measurement": "Activity", "setting": "Candida albicans [10]", "value": "Active"}, {"measurement": "MIC", "setting": "Candida albicans [4]", "value": "> 200", "unit": "µM"}, {"measurement": "Activity", "setting": "Candida albicans [11]", "value": "Active"}, {"measurement": "Activity", "setting": "Candida albicans [12]", "value": "Active"}, {"measurement": "Activity", "setting": "Candida albicans [13]", "value": "Active"}, {"measurement": "Activity", "setting": "Candida albicans [14]", "value": "Active"}, {"measurement": "Activity", "setting": "Candida albicans [15]", "value": "Active"}]}, {"smiles": "CN(C)CCCNc1nccc(Nc2nnnn2Cc2ccccc2)n1", "values": [{"measurement": "LC50", "setting": "[2]", "value": "> 200", "unit": "µM"}, {"measurement": "MIC", "setting": "Candida albicans [4]", "value": "> 200", "unit": "µM"}]}, {"smiles": "c1ccc(Cn2nnnc2Nc2cccnc2)cc1", "values": [{"measurement": "LC50", "setting": "[2]", "value": "> 200", "unit": "µM"}, {"measurement": "MIC", "setting": "Candida albicans [4]", "value": "> 200", "unit": "µM"}]}]}
